Test results taken from PubChem BioAssay AID330 (DTP/NCI, 2004).
Values joined by “and” are separate entries in the source; they are usually repeats but may differ in a detail not shown here. Identical values can stand only once. Inconclusive results and toxic doses are left out. The calls were made as follows: active = survival T/C of 150% or more; inactive = T/C below 125% in these data.

Test system: P388 leukemia ip, CD2F1 mice, survival T/C
Experiment: NCI In Vivo Anticancer Drug Screen. Data for tumor model P388 Leukemia (intraperitoneal) in CD2F1 (CDF1) mice
Settings: endpoint: median survival time, higher = longer survival
Outline: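 Mice carrying the transplanted tumor received test compound or vehicle. Survival was recorded in each group, and the value is the treated-group measurement divided by that of the vehicle-treated control group.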

[1] = dose: 50.0 mg/kg/injection, schedule: Q01DX005 (ip), vehicle: Klucel (hydroxypropylcellulose) (HPC)
[2] = dose: 50.0 mg/kg/injection, schedule: Q01DX009 (ip), vehicle: saline with Tween-80
[3] = dose: 100.0 mg/kg/injection, schedule: Q01DX009 (ip), vehicle: saline with Tween-80
[4] = dose: 200.0 mg/kg/injection, schedule: Q01DX009 (ip), vehicle: saline with Tween-80

Measured: T/C

O=C(NC1C=Nc2ccc(Cl)cc2NC1=O)c1ccc2ccccc2c1 (stereo not given)
inactive: dose: 60.0 mg/kg/injection, schedule: Q01DX005 (ip), vehicle: Klucel (hydroxypropylcellulose) (HPC) 90 % of control | dose: 120.0 mg/kg/injection, schedule: Q01DX005 (ip), vehicle: Klucel (hydroxypropylcellulose) (HPC) 91 % of control | dose: 240.0 mg/kg/injection, schedule: Q01DX005 (ip), vehicle: Klucel (hydroxypropylcellulose) (HPC) 92 % of control

CN1CCCN(C)C1c1ccc(Cl)cc1
inactive: dose: 12.5 mg/kg/injection, schedule: Q01DX009 (ip), vehicle: saline sonified 90 % of control | dose: 25.0 mg/kg/injection, schedule: Q01DX009 (ip), vehicle: saline sonified 90 % of control

CN(C)C12CCC(c3ccccc31)c1ccccc12
inactive: dose: 60.0 mg/kg/injection, schedule: Q01DX005 (ip), vehicle: saline with Tween-80 105 % of control | dose: 120.0 mg/kg/injection, schedule: Q01DX005 (ip), vehicle: saline with Tween-80 97 % of control | dose: 240.0 mg/kg/injection, schedule: Q01DX005 (ip), vehicle: saline with Tween-80 104 % of control

O=C1c2ccccc2C(=O)c2c(O)c(NCCNCCO)cc(O)c21
inactive: dose: 1.25 mg/kg/injection, schedule: Q01DX009 (ip), vehicle: acid diluted with saline 113 % of control | dose: 2.5 mg/kg/injection, schedule: Q01DX009 (ip), vehicle: acid diluted with saline 98 % of control and 104 % of control | dose: 5.0 mg/kg/injection, schedule: Q01DX009 (ip), vehicle: acid diluted with saline 117 % of control and 122 % of control | dose: 10.0 mg/kg/injection, schedule: Q01DX009 (ip), vehicle: acid diluted with saline 108 % of control and 124 % of control | dose: 20.0 mg/kg/injection, schedule: Q01DX009 (ip), vehicle: acid diluted with saline 104 % of control and 118 % of control | dose: 40.0 mg/kg/injection, schedule: Q01DX009 (ip), vehicle: acid diluted with saline 108 % of control | dose: 80.0 mg/kg/injection, schedule: Q01DX009 (ip), vehicle: acid diluted with saline 89 % of control

COc1ccc2c(NCCCCNc3c4ccccc4nc4cc(OC)ccc34)c3ccccc3nc2c1
inactive: dose: 0.62 mg/kg/injection, schedule: Q01DX009 (ip), vehicle: other 101 % of control | dose: 1.25 mg/kg/injection, schedule: Q01DX009 (ip), vehicle: other 102 % of control | dose: 2.5 mg/kg/injection, schedule: Q01DX009 (ip), vehicle: other 108 % of control | dose: 5.0 mg/kg/injection, schedule: Q01DX009 (ip), vehicle: other 101 % of control | dose: 10.0 mg/kg/injection, schedule: Q01DX009 (ip), vehicle: other 107 % of control | dose: 20.0 mg/kg/injection, schedule: Q01DX009 (ip), vehicle: other 110 % of control

CCCCOc1ccc2nc(C)cc(N/N=C/c3ccc(OC)c4ccccc34)c2c1
inactive: dose: 12.5 mg/kg/injection, schedule: Q01DX005 (ip), vehicle: Klucel (hydroxypropylcellulose) (HPC) 94 % of control | dose: 25.0 mg/kg/injection, schedule: Q01DX005 (ip), vehicle: Klucel (hydroxypropylcellulose) (HPC) 94 % of control | [1] 89 % of control and 97 % of control

O=C1CCCN1C(=O)c1ccccc1
inactive: dose: 18.8 mg/kg/injection, schedule: Q01DX001 (ip), vehicle: saline sonified 105 % of control | dose: 37.5 mg/kg/injection, schedule: Q01DX001 (ip), vehicle: saline sonified 120 % of control | dose: 75.0 mg/kg/injection, schedule: Q01DX001 (ip), vehicle: saline sonified 105 % of control

COC1OC(CO)C(O)C2OCCOCCOC3C(OC)OC(CO)C(O)C3OCCOCCOC12 (stereo not given)
inactive: dose: 60.0 mg/kg/injection, schedule: Q01DX005 (ip), vehicle: saline 103 % of control | dose: 120.0 mg/kg/injection, schedule: Q01DX005 (ip), vehicle: saline 101 % of control | dose: 240.0 mg/kg/injection, schedule: Q01DX005 (ip), vehicle: saline 97 % of control

[O-][n+]1ccccc1C(O)CSc1ccccc1 (stereo not given)
inactive: [2] 100 % of control | [3] 101 % of control | [4] 100 % of control

COc1cc2c(cc1O)C(CSC)Cc1cc(OC)c(OC)cc1N(C)CC2 (stereo not given)
inactive: [2] 104 % of control | [3] 101 % of control | [4] 109 % of control

CCN(CC)CCCC(C)Nc1nncc2cc(Cl)ccc12 (stereo not given)
inactive: dose: 50.0 mg/kg/injection, schedule: Q01DX005 (ip), vehicle: saline 95 % of control | dose: 100.0 mg/kg/injection, schedule: Q01DX005 (ip), vehicle: saline 97 % of control

CCCCCCCCCC[N+]1(CC)CCCC1
inactive: dose: 3.12 mg/kg/injection, schedule: Q01DX009 (ip), vehicle: saline 104 % of control | dose: 6.25 mg/kg/injection, schedule: Q01DX009 (ip), vehicle: saline 100 % of control

N#CCCSC(=S)C(C#N)C(=N)c1ccccc1 (stereo not given)
inactive: dose: 25.0 mg/kg/injection, schedule: Q04DX003 (ip), vehicle: Klucel (hydroxypropylcellulose) (HPC) 108 % of control | dose: 50.0 mg/kg/injection, schedule: Q04DX003 (ip), vehicle: Klucel (hydroxypropylcellulose) (HPC) 110 % of control | dose: 100.0 mg/kg/injection, schedule: Q04DX003 (ip), vehicle: Klucel (hydroxypropylcellulose) (HPC) 104 % of control and 92 % of control | dose: 200.0 mg/kg/injection, schedule: Q04DX003 (ip), vehicle: Klucel (hydroxypropylcellulose) (HPC) 92 % of control | dose: 400.0 mg/kg/injection, schedule: Q04DX003 (ip), vehicle: Klucel (hydroxypropylcellulose) (HPC) 96 % of control

C=C1C(=O)OC2/C=C(\C)CC(OC(C)=O)/C=C(/CO)CC(OC(=O)/C(C)=C/C)C12 (stereo not given)
inactive: dose: 3.75 mg/kg/injection, schedule: Q01DX009 (ip), vehicle: saline + alcohol 90 % of control | dose: 7.5 mg/kg/injection, schedule: Q01DX009 (ip), vehicle: saline + alcohol 98 % of control | dose: 15.0 mg/kg/injection, schedule: Q01DX009 (ip), vehicle: saline + alcohol 93 % of control | dose: 30.0 mg/kg/injection, schedule: Q01DX009 (ip), vehicle: saline + alcohol 86 % of control

Cc1ccc(OP(=O)(Oc2ccc(C)cc2)Oc2ccc(C)cc2)cc1.Cc1ccc(OP(=O)(Oc2ccc(C)cc2)Oc2ccc(C)cc2)cc1.Cc1ccc(OP(=O)(Oc2ccc(C)cc2)Oc2ccc(C)cc2)cc1.Cc1ccc(OP(=O)(Oc2ccc(C)cc2)Oc2ccc(C)cc2)cc1.[Nd+3].[O-][Cl+3]([O-])([O-])O
inactive: dose: 100.0 mg/kg/injection, schedule: Q01DX001 (ip), vehicle: Klucel (hydroxypropylcellulose) (HPC) 90 % of control | dose: 200.0 mg/kg/injection, schedule: Q01DX001 (ip), vehicle: Klucel (hydroxypropylcellulose) (HPC) 91 % of control | dose: 400.0 mg/kg/injection, schedule: Q01DX001 (ip), vehicle: Klucel (hydroxypropylcellulose) (HPC) 86 % of control

CNC(=O)OCc1nc(SC)n(-c2ccccc2)c1COC(=O)NC
inactive: dose: 12.5 mg/kg/injection, schedule: Q01DX005 (ip), vehicle: distilled water + Tween-80 99 % of control | dose: 25.0 mg/kg/injection, schedule: Q01DX005 (ip), vehicle: distilled water + Tween-80 101 % of control | dose: 50.0 mg/kg/injection, schedule: Q01DX005 (ip), vehicle: distilled water + Tween-80 99 % of control and 102 % of control and 92 % of control | dose: 100.0 mg/kg/injection, schedule: Q01DX005 (ip), vehicle: distilled water + Tween-80 101 % of control and 106 % of control and 108 % of control | dose: 200.0 mg/kg/injection, schedule: Q01DX005 (ip), vehicle: distilled water + Tween-80 113 % of control | dose: 400.0 mg/kg/injection, schedule: Q01DX005 (ip), vehicle: distilled water + Tween-80 99 % of control

CCOC(=O)c1cnc2c(OC)ccc(OC)c2c1Cl
inactive: dose: 50.0 mg/kg/injection, schedule: Q01DX005 (ip), vehicle: saline with Tween-80 97 % of control | dose: 100.0 mg/kg/injection, schedule: Q01DX005 (ip), vehicle: saline with Tween-80 97 % of control | dose: 200.0 mg/kg/injection, schedule: Q01DX005 (ip), vehicle: saline with Tween-80 99 % of control

C1CNCOC1
inactive: dose: 50.0 mg/kg/injection, schedule: Q04DX003 (ip), vehicle: saline 120 % of control | dose: 100.0 mg/kg/injection, schedule: Q04DX003 (ip), vehicle: saline 117 % of control | dose: 200.0 mg/kg/injection, schedule: Q04DX003 (ip), vehicle: saline 123 % of control

COC(=O)c1ccccc1NC(C)=NC(C)(C)C
inactive: [2] 103 % of control | [3] 90 % of control | [4] 90 % of control

CCOC(=O)C1(CC(C)C)CCOC1=O (stereo not given)
inactive: [1] 99 % of control | dose: 100.0 mg/kg/injection, schedule: Q01DX005 (ip), vehicle: Klucel (hydroxypropylcellulose) (HPC) 96 % of control | dose: 200.0 mg/kg/injection, schedule: Q01DX005 (ip), vehicle: Klucel (hydroxypropylcellulose) (HPC) 97 % of control

CN1CCC(CN2c3ccccc3Sc3ccccc32)C1 (stereo not given)
inactive: dose: 12.5 mg/kg/injection, schedule: Q01DX009 (ip), vehicle: saline with Tween-80 104 % of control | dose: 25.0 mg/kg/injection, schedule: Q01DX009 (ip), vehicle: saline with Tween-80 107 % of control | [2] 116 % of control

Cc1cn2ccccc2c[n+]1=O
inactive: dose: 5.0 mg/kg/injection, schedule: Q01DX009 (ip), vehicle: saline sonified 104 % of control | dose: 10.0 mg/kg/injection, schedule: Q01DX009 (ip), vehicle: saline sonified 90 % of control
